How the values were obtained:
Format in all cases: cell-based, human
[1] = test system: NK cells from CMV seropositive donors; assay: Culture of CD3/CD19-depleted PBMCs with IL-15; FACS for CD45RA/CD45RO; settings: autologous monocytes, 10 ng/mL IL-15, 7 days
Description: CD3/CD19-depleted peripheral blood mononuclear cells from typed healthy CMV seronegative and seropositive donors were cultured with 10 ng/mL IL-15. After 7 days, cells were harvested and analyzed by FACS. Shown are representative phenotypes from one CMV seropositive and one CMV seronegative donor both before and after culture (top). Cumulative data showing the percentages of CD3^−CD56^+CD45RA^−CD45RO^+ NK cells from five CMV seronegative and eight CMV seropositive donors pre- and post-culture are shown (bottom). Data are representative of two independent experiments. Paired student's t-tests were used to determine statistical significance within groups, and unpaired student's t-tests were used to determine statistical significance between groups (CMV seropositive and CMV seronegative). *p≤0.05, **p≤0.01, ***p≤0.001.
CD3/CD19-depleted peripheral blood mononuclear cells from typed healthy CMV seronegative and seropositive donors were cultured with 10 ng/mL IL-15. Percentages of CD3^−CD56^+CD45RA^−CD45RO^+ NK cells from CMV seronegative and CMV seropositive donors pre- and post-culture were measured using FACS.

TIGIT = assay: Flow cytometry of TIGIT and other receptors on NK cells; settings: cultured overnight; IL-15 10 ng/mL alone, or additional anti-CD16 1 μg/mL
Description: FIG. 11A. Purified NK cells from healthy blood donors were cultured before staining in the absence or presence of IL-15 (10 ng/mL) alone or with the additional stimulation of IL-12 (10 ng/mL) and IL-18 (100 ng/mL) for 18 hours or with stimulation with anti-CD16 (1 μg/mL) for 6 hours. One of four independent experiments is shown. NK cells were cultured with autologous MDSCs or freshly isolated monocytes at a 2:1 ratio in presence of IL-15 (10 ng/mL) for 5 days. Cells were stimulated with anti-CD16 six hours prior to analysis. Representative histograms for DNAM-1 (FIG. 11B) and TIGIT expression (FIG. 11C) and aggregate data for TIGIT expression (n=8) are shown as mean fluorescence intensity (MFI)±SEM. Two-Way ANOVA was used for statistical analysis. FIG. 11D. NK cells before and after co-culture with monocytes or MDSC were analyzed for co-expression of DNAM-1 and TIGIT. Representative data is shown of 3 independent experiments and 7 replicates. […]
Purified NK cells or MDS PBMC (FIG. 17) cultured with monocytes or MDSCs for different time points and with different stimuli were resuspended in staining buffer (PBS containing 0.5% human AB serum) and stained with fluorochrome-conjugated antibodies (Table IV). […] All cells were acquired by LSRII and analyzed by FlowJo. […]

[2] = test system: PLZF expression in cord blood-derived CD56^dim NK cells; assay: Intracellular PLZF staining of cord blood-derived CD56^dim NK cells after 14 days in culture; settings: high-dose IL-15, IL-21 where added
Description: FIG. 6A. FACS plots of intracellular PLZF expression in cord blood-derived CD56^dim NK cells from a representative donor after 14 days in the indicated culture conditions. FIG. 6B. Cumulative data showing the percentage of PLZF″ NK cells after 14 days in each culture condition from 6 donors. Two independent experiments were performed. Error bars represent SEM.
Mononuclear cells were isolated from whole cord blood by density gradient centrifugation. T cells and B cells were depleted by positive magnetic selection using anti-CD3 and anti-CD19 microbeads, respectively. CD3/CD19-depleted cells were then added to irradiated OP9 cells at a concentration of 5×10^5 cells/well and cultured for 14 days in RPMI media+10% FBS supplemented with either 1 ng/mL IL-15 or 10 ng/mL IL-15 with or without 50 ng/mL IL-21.
Cord blood-derived NK cells were analyzed before culture and after 7 and 14 days of culture by fluorescence activated cell sorting (FACS) using the following extracellular and intracellular antibodies: BV785-conjugated anti-CD3 (BioLegend, San Diego, CA), PE-Cy7-conjugated anti-CD56 (BioLegend, San Diego, CA), BV605-conjugated anti-CD57 (BioLegend, San Diego, CA), APC-conjugated SYK (eBioscience, San Diego, CA), and PE-conjugated anti-PLZF (BD Biosciences, San Jose, CA).
Transcriptional silencing of the transcription factor promyelocytic leukemia zinc finger (PLZF) is a hallmark of adaptive NK cells that expand in response to CMV infection (Schlums et al. Immunity. 2015; 42(3):443-456). Intracellular staining for PLZF was performed in NK cells from freshly isolated mononuclear cells and from cells that were cultured for 14 days in vitro. Freshly isolated CD56^dimSYK^− NK cells from cord blood were predominantly PLZF-positive (99.3%±0.10). […] Therefore, IL-21 drives down PLZF expression in CD56^dimSYK^− NK cells, causing these cells to acquire adaptive characteristics (FIG. 6).

IL-15: cytokine in culture medium, low-dose 1 ng/mL or high-dose 10 ng/mL
CD45RA/CD45RO phenotype of NK cells [1]: skew towards a CD45RA^−CD45RO^+ phenotype | TIGIT expression on purified NK cells (TIGIT): slighted upregulated | decrease in PLZF expression (percentage of PLZF-negative NK cells) ([2]; CD56^dimCD57^−SYK^+ NK cells): 9.93%±0.75 | decrease in PLZF expression (percentage of PLZF-negative NK cells) ([2]; CD56^dimCD57^−SYK^− NK cells): 7.05%±1.31
